Test results taken from patent US20150159180A1, “PROCESS FOR PRODUCTION OF C[…] USING PICHIA CARIBBICA AND ITS APPLICATION FOR QUORUM SENSING INHIBITION” (COUNCIL OF SCIENTIFIC & INDUSTRIAL RESEARCH, priority 2012, published 2015).

Key:
[1] = tested on: Chromobacterium violaceum CV026; experiment: Violacein inhibition assay (quantitative), tube assay; assay type: cell-based
Protocol: This assay is based on a similar principle to the one described above, that is the presence of any quorum sensing inhibitor will quantitatively decrease the production of the purple pigment violacein which can then be estimated colorimetrically. This is a tube assay in which 100 μl of overnight culture of CV026 was inoculated in 10 ml LB broth containing the QS signal molecule (namely C6-HSL, C8-HSL or 3-oxo-C6-HSL) at appropriate concentrations. The test compound, Pichia sp. synthesized xylitol in the present invention, was then added at increasing concentrations in a series of test tubes. The violacein produced was extracted from the culture broth by dissolution of the pigment in DMSO and separating it from the cell mass by centrifugation. The amount of xylitol required to inhibit or substantially decrease the purple pigment production could be quantitatively estimated by measuring the optical density at 570 nm. Appropriate positive and negative controls were used. All experiments were done in triplicates for checking reproducibility.

[2] = tested on: Chromobacterium violaceum mutant CV026; experiment: Violacein inhibition assay (qualitative), agar well; assay type: cell-based; details: QS signal molecule 12.5 μM, 30° C., 24 hours, FIG. 5
Protocol: This assay has been designed in such a way that a zone inhibition of Violacein synthesis can be seen around the agar well containing the probable QS Inhibitor. Chromobacterium violaceum mutant CV026 is used as the test organism which has the ability to respond to a variety of signal molecules. The QS signal molecule (12.5 μM) is added to 10 ml of Luria bertani soft agar containing 100 μl of overnight culture of CV026. The soft agar is then overlayed onto basal LA plate, and a 4 mm diameter well is dug in the centre of the plate using a sterile cork borer after the overlay is set. To the agar well 75 μl of appropriate concentration of the compound under investigation was added, and the plates were incubated at 30° C. for 24 hours. The diameter of zone of Violacein inhibition was then measured. Pure xylitol from sigma was used for comparative analysis.

[3] = increasing concentration of xylitol, CV026

OC[C@@H](O)[C@H](O)[C@@H](O)CO [Pichia xylitol, xylitol]
antagonism of AHL signal and receptor interaction ([1]; CV026 based AHL antagonism assay, C6-HSL, C8-HSL and 3-oxo-C6-HSL): able to antagonize not one but three different AHL signal and receptor interaction
inhibitory effect on the organism [1, 3]: not inhibitory to the organism
quorum sensing signal reception [1, 3]: severely impaired quorum sensing signal reception
inhibition of Violacein production ([1]; increasing concentrations of xylitol, optical density at 570 nm, FIG. 6): could quantitatively inhibit Violacein production
zone of inhibition of Violacein synthesis [2]: zone of inhibition of Violacein synthesis around the agar well
